Experimental data as given in patent publication US12660819B2, “Herbicidal derivatives” (SYNGENTA CROP PROTECTION AG, priority 2020, dated 2026).

Assays:
Assay type in all cases: in vivo
[1] = system: Ipomoea hederacea (IPOHE); assay: Pre-emergence Test (glasshouse, percentage damage to the plant); details: 1000 g/ha unless otherwise stated; for percentage damage to the plant, IPOHE: five-point scale; for percentage damage to the plant, IPOHE (five-point scale): Ipomoea hederacea
[2] = system: Zea mays (ZEAMX); assay: as above; details: 1000 g/ha unless otherwise stated; for percentage damage to the plant, ZEAMX: five-point scale; for percentage damage to the plant, ZEAMX (five-point scale): Zea mays
[3] = system: Ipomoea hederacea (IPOHE); assay: Post-emergence Test (glasshouse, percentage damage to the plant); details: 1000 g/ha unless otherwise stated, evaluated after 13 days; for Post-emergence Test IPOHE, percentage damage to the plant (five-point scale): post-emergence spray; for IPOHE, percentage damage caused to the plant (five-point scale): post-emergence
Description: (§1) Seeds of a variety of test species are sown in standard soil in pots (Amaranthus retoflexus (AMARE), Solanum nigrum (SOLNI), Setaria faberi (SETFA), Lolium perenne (LOLPE), Echinochloa crus-galli (ECHCG), Ipomoea hederacea (IPOHE), Abutilon theophrasti (ABUTH), Zea mays (ZEAMX), Amaranthus palmeri (AMAPA). After 8 days cultivation under controlled conditions in a glasshouse (at 24° C./16° C., day/night; 14 hours light; 65% humidity), the plants are sprayed with an aqueous spray solution derived from the formulation of the technical active ingredient in acetone/water (50:50) solution containing 0.5% Tween 20 (polyoxyethelyene sorbitan monolaurate, CAS RN 9005-64-5). Compounds are applied at 1000 g/ha unless otherwise stated. The test plants are then grown in a glasshouse under controlled conditions in a glasshouse (at 24° C./16° C., day/night; 14 hours light; 65% humidity) and watered twice daily. After 13 days the test is evaluated for the percentage damage caused to the plant. The biological activities are shown in the following table on a five-point scale (5=81-100%; 4=61-80%; 3=41-60%; 2=21-40%; 1=0-20%).

[4] = system: Zea mays (ZEAMX); assay: as above; details: 1000 g/ha unless otherwise stated, evaluated after 13 days; for Post-emergence Test ZEAMX, percentage damage to the plant (five-point scale): post-emergence spray; for ZEAMX, percentage damage caused to the plant (five-point scale): post-emergence
Description: as §1

[5] = system: Setaria faberi (SETFA); assay: as above; details: 1000 g/ha unless otherwise stated, evaluated after 13 days; for Post-emergence Test SETFA, percentage damage to the plant (five-point scale): post-emergence spray; for SETFA, percentage damage caused to the plant (five-point scale): post-emergence
Description: as §1

[6] = system: Echinochloa crus-galli (ECHCG); assay: as above; details: 1000 g/ha unless otherwise stated, evaluated after 13 days; for Post-emergence Test ECHCG, percentage damage to the plant (five-point scale): post-emergence spray; for ECHCG, percentage damage caused to the plant (five-point scale): post-emergence
Description: as §1

[7] = system: Amaranthus retoflexus (AMARE); assay: as above; details: 1000 g/ha unless otherwise stated, evaluated after 13 days; for Post-emergence Test AMARE, percentage damage to the plant (five-point scale): post-emergence spray; for AMARE, percentage damage caused to the plant (five-point scale): post-emergence
Description: as §1

[8] = system: Echinochloa crus-galli (ECHCG); assay: Pre-emergence Test (glasshouse, percentage damage to the plant); details: 1000 g/ha unless otherwise stated; for percentage damage to the plant, ECHCG: five-point scale; for percentage damage to the plant, ECHCG (five-point scale): Echinochloa crus-galli
[9] = system: Abutilon theophrasti (ABUTH); assay: as above; details: 1000 g/ha unless otherwise stated; for percentage damage to the plant, ABUTH: five-point scale; for percentage damage to the plant, ABUTH (five-point scale): Abutilon theophrasti
[10] = system: Setaria faberi (SETFA); assay: as above; details: 1000 g/ha unless otherwise stated; for percentage damage to the plant, SETFA: five-point scale; for percentage damage to the plant, SETFA (five-point scale): Setaria faberi
[11] = system: Amaranthus retoflexus (AMARE); assay: as above; details: 1000 g/ha unless otherwise stated; for percentage damage to the plant, AMARE: five-point scale; for percentage damage to the plant, AMARE (five-point scale): Amaranthus retoflexus
[12] = system: Abutilon theophrasti (ABUTH); assay: Post-emergence Test (glasshouse, percentage damage to the plant); details: post-emergence; 1000 g/ha unless otherwise stated; evaluated after 13 days
Description: as §1

CCn1c(C)c(-c2cc(F)ccc2Cl)c(=O)c(C(=O)O)c1-c1ccc(Cl)cc1 [Compound 175, 5-(2-chloro-5-fluoro-phenyl)-2-(4-chlorophenyl)-1-ethyl-6-methyl-4-oxo-pyridine-3-carboxylic acid]
percentage damage to the plant, IPOHE [1]: 3 (3=41-60%)
percentage damage to the plant, ZEAMX [2]: 1 (1=0-20%)
Post-emergence Test IPOHE, percentage damage to the plant (five-point scale) [3]: 3 (3=41-60%)
Post-emergence Test ZEAMX, percentage damage to the plant (five-point scale) [4]: 1 (1=0-20%)
Post-emergence Test SETFA, percentage damage to the plant (five-point scale) [5]: 3 (3=41-60%)
Post-emergence Test ECHCG, percentage damage to the plant (five-point scale) [6]: 2 (2=21-40%)
Post-emergence Test AMARE, percentage damage to the plant (five-point scale) [7]: 1 (1=0-20%)
percentage damage to the plant, ECHCG [8]: 1 (1=0-20%)
percentage damage to the plant, ABUTH [9]: 0
percentage damage to the plant, SETFA [10]: 2 (2=21-40%)
percentage damage to the plant, AMARE [11]: 0

CCn1c(C)c(-c2cccc(C(F)(F)F)n2)c(=O)c(C(=O)O)c1-c1ccc(Cl)c(Cl)c1 [Compound 217, 2-(3,4-dichlorophenyl)-1-ethyl-6-methyl-4-oxo-5-[6-(trifluoromethyl)-2-pyridyl]pyridine-3-carboxylic acid]
percentage damage to the plant, IPOHE (five-point scale) [1]: 3 (3=41-60%)
percentage damage to the plant, ZEAMX (five-point scale) [2]: 1 (1=0-20%)
IPOHE, percentage damage caused to the plant (five-point scale) [3]: 3 (3=41-60%)
ZEAMX, percentage damage caused to the plant (five-point scale) [4]: 0
SETFA, percentage damage caused to the plant (five-point scale) [5]: 2 (2=21-40%)
ECHCG, percentage damage caused to the plant (five-point scale) [6]: 1 (1=0-20%)
AMARE, percentage damage caused to the plant (five-point scale) [7]: 0
percentage damage to the plant, ECHCG (five-point scale) [8]: 1 (1=0-20%)
percentage damage to the plant, ABUTH (five-point scale) [9]: 3 (3=41-60%)
percentage damage to the plant, SETFA (five-point scale) [10]: 2 (2=21-40%)
percentage damage to the plant, AMARE (five-point scale) [11]: 0

CCn1c(CCOC)c(-c2ccc(Cl)cc2)c(=O)c(C(=O)O)c1-c1ccc(Cl)c(Cl)c1 [Compound 203, 5-(4-chlorophenyl)-2-(3,4-dichlorophenyl)-1-ethyl-6-(2-methoxyethyl)-4-oxo-pyridine-3-carboxylic acid]
percentage damage to the plant, IPOHE (five-point scale) [1]: 0
percentage damage to the plant, ZEAMX (five-point scale) [2]: 0
IPOHE, percentage damage caused to the plant (five-point scale) [3]: 0
ABUTH, percentage damage caused to the plant (five-point scale) [12]: 0
ZEAMX, percentage damage caused to the plant (five-point scale) [4]: 1 (1=0-20%)
SETFA, percentage damage caused to the plant (five-point scale) [5]: 0
AMARE, percentage damage caused to the plant (five-point scale) [7]: 0
percentage damage to the plant, ECHCG (five-point scale) [8]: 1 (1=0-20%)
percentage damage to the plant, SETFA (five-point scale) [10]: 0
percentage damage to the plant, AMARE (five-point scale) [11]: 0

CCn1c(C)c(-c2cc(Cl)c(F)c(Cl)c2)c(=O)c(C(=O)O)c1-c1ccc(Cl)cc1 [Compound 178, 2-(4-chlorophenyl)-5-(3,5-dichloro-4-fluoro-phenyl)-1-ethyl-6-methyl-4-oxo-pyridine-3-carboxylic acid]
percentage damage to the plant, IPOHE [1]: 0
percentage damage to the plant, ZEAMX [2]: 0
Post-emergence Test IPOHE, percentage damage to the plant (five-point scale) [3]: 1 (1=0-20%)
Post-emergence Test ZEAMX, percentage damage to the plant (five-point scale) [4]: 1 (1=0-20%)
Post-emergence Test SETFA, percentage damage to the plant (five-point scale) [5]: 0
Post-emergence Test ECHCG, percentage damage to the plant (five-point scale) [6]: 1 (1=0-20%)
Post-emergence Test AMARE, percentage damage to the plant (five-point scale) [7]: 1 (1=0-20%)
percentage damage to the plant, ECHCG [8]: 0
percentage damage to the plant, ABUTH [9]: 0
percentage damage to the plant, SETFA [10]: 0
percentage damage to the plant, AMARE [11]: 0

CCn1c(C)c(-c2ccc(F)c(C#N)c2)c(=O)c(C(=O)O)c1-c1ccc(Cl)cc1 [Compound 174, 2-(4-chlorophenyl)-5-(3-cyano-4-fluoro-phenyl)-1-ethyl-6-methyl-4-oxo-pyridine-3-carboxylic acid]
percentage damage to the plant, IPOHE [1]: 1 (1=0-20%)
percentage damage to the plant, ZEAMX [2]: 1 (1=0-20%)
Post-emergence Test IPOHE, percentage damage to the plant (five-point scale) [3]: 4 (4=61-80%)
Post-emergence Test ZEAMX, percentage damage to the plant (five-point scale) [4]: 1 (1=0-20%)
Post-emergence Test SETFA, percentage damage to the plant (five-point scale) [5]: 3 (3=41-60%)
Post-emergence Test ECHCG, percentage damage to the plant (five-point scale) [6]: 2 (2=21-40%)
Post-emergence Test AMARE, percentage damage to the plant (five-point scale) [7]: 2 (2=21-40%)
percentage damage to the plant, ECHCG [8]: 3 (3=41-60%)
percentage damage to the plant, ABUTH [9]: 1 (1=0-20%)
percentage damage to the plant, SETFA [10]: 2 (2=21-40%)
percentage damage to the plant, AMARE [11]: 1 (1=0-20%)

CCn1c(C)c(-c2cccc(OC)c2F)c(=O)c(C(=O)O)c1-c1ccc(Cl)cc1 [Compound 179, 2-(4-chlorophenyl)-1-ethyl-5-(2-fluoro-3-methoxy-phenyl)-6-methyl-4-oxo-pyridine-3-carboxylic acid]
percentage damage to the plant, IPOHE [1]: 3 (3=41-60%)
percentage damage to the plant, ZEAMX [2]: 0
Post-emergence Test IPOHE, percentage damage to the plant (five-point scale) [3]: 3 (3=41-60%)
Post-emergence Test ZEAMX, percentage damage to the plant (five-point scale) [4]: 1 (1=0-20%)
Post-emergence Test SETFA, percentage damage to the plant (five-point scale) [5]: 3 (3=41-60%)
Post-emergence Test ECHCG, percentage damage to the plant (five-point scale) [6]: 2 (2=21-40%)
Post-emergence Test AMARE, percentage damage to the plant (five-point scale) [7]: 2 (2=21-40%)
percentage damage to the plant, ECHCG [8]: 1 (1=0-20%)
percentage damage to the plant, ABUTH [9]: 3 (3=41-60%)
percentage damage to the plant, SETFA [10]: 1 (1=0-20%)
percentage damage to the plant, AMARE [11]: 1 (1=0-20%)

CCn1c(C)c(-c2cc(C)c(F)c(C)c2)c(=O)c(C(=O)O)c1-c1ccc(Cl)cc1 [Compound 173, 2-(4-chlorophenyl)-1-ethyl-5-(4-fluoro-3,5-dimethyl-phenyl)-6-methyl-4-oxo-pyridine-3-carboxylic acid]
percentage damage to the plant, IPOHE [1]: 0
percentage damage to the plant, ZEAMX [2]: 0
Post-emergence Test IPOHE, percentage damage to the plant (five-point scale) [3]: 3 (3=41-60%)
Post-emergence Test ZEAMX, percentage damage to the plant (five-point scale) [4]: 2 (2=21-40%)
Post-emergence Test SETFA, percentage damage to the plant (five-point scale) [5]: 2 (2=21-40%)
Post-emergence Test ECHCG, percentage damage to the plant (five-point scale) [6]: 1 (1=0-20%)
Post-emergence Test AMARE, percentage damage to the plant (five-point scale) [7]: 3 (3=41-60%)
percentage damage to the plant, ECHCG [8]: 0
percentage damage to the plant, ABUTH [9]: 0
percentage damage to the plant, SETFA [10]: 0
percentage damage to the plant, AMARE [11]: 0

CCOc1cc(-c2c(C)n(CC)c(-c3ccc(Cl)cc3)c(C(=O)O)c2=O)ccc1C(F)(F)F [Compound 176, 2-(4-chlorophenyl)-5-[3-ethoxy-4-(trifluoromethyl)phenyl]-1-ethyl-6-methyl-4-oxo-pyridine-3-carboxylic acid]
percentage damage to the plant, IPOHE [1]: 0
percentage damage to the plant, ZEAMX [2]: 0
Post-emergence Test IPOHE, percentage damage to the plant (five-point scale) [3]: 1 (1=0-20%)
Post-emergence Test ZEAMX, percentage damage to the plant (five-point scale) [4]: 1 (1=0-20%)
Post-emergence Test SETFA, percentage damage to the plant (five-point scale) [5]: 1 (1=0-20%)
Post-emergence Test ECHCG, percentage damage to the plant (five-point scale) [6]: 1 (1=0-20%)
Post-emergence Test AMARE, percentage damage to the plant (five-point scale) [7]: 2 (2=21-40%)
percentage damage to the plant, ABUTH [9]: 0
percentage damage to the plant, SETFA [10]: 0
percentage damage to the plant, AMARE [11]: 0

CCn1c(C)c(-c2ccc(C#N)cc2)c(=O)c(C(=O)O)c1-c1ccc(Cl)cc1 [Compound 198, 2-(4-chlorophenyl)-5-(4-cyanophenyl)-1-ethyl-6-methyl-4-oxo-pyridine-3-carboxylic acid]
percentage damage to the plant, IPOHE (five-point scale) [1]: 1 (1=0-20%)
percentage damage to the plant, ZEAMX (five-point scale) [2]: 0
IPOHE, percentage damage caused to the plant (five-point scale) [3]: 1 (1=0-20%)
ZEAMX, percentage damage caused to the plant (five-point scale) [4]: 1 (1=0-20%)
SETFA, percentage damage caused to the plant (five-point scale) [5]: 2 (2=21-40%)
ECHCG, percentage damage caused to the plant (five-point scale) [6]: 1 (1=0-20%)
AMARE, percentage damage caused to the plant (five-point scale) [7]: 2 (2=21-40%)
percentage damage to the plant, ECHCG (five-point scale) [8]: 0
percentage damage to the plant, ABUTH (five-point scale) [9]: 0
percentage damage to the plant, SETFA (five-point scale) [10]: 0
percentage damage to the plant, AMARE (five-point scale) [11]: 0

CCn1c(C)c(-c2cc(OC)ccc2F)c(=O)c(C(=O)O)c1-c1ccc(Cl)cc1 [Compound 189, 2-(4-chlorophenyl)-1-ethyl-5-(2-fluoro-5-methoxy-phenyl)-6-methyl-4-oxo-pyridine-3-carboxylic acid]
percentage damage to the plant, IPOHE [1]: 1 (1=0-20%)
percentage damage to the plant, ZEAMX [2]: 0
Post-emergence Test IPOHE, percentage damage to the plant (five-point scale) [3]: 1 (1=0-20%)
Post-emergence Test ZEAMX, percentage damage to the plant (five-point scale) [4]: 1 (1=0-20%)
Post-emergence Test SETFA, percentage damage to the plant (five-point scale) [5]: 2 (2=21-40%)
Post-emergence Test AMARE, percentage damage to the plant (five-point scale) [7]: 2 (2=21-40%)
percentage damage to the plant, ECHCG [8]: 2 (2=21-40%)
percentage damage to the plant, ABUTH [9]: 3 (3=41-60%)
percentage damage to the plant, SETFA [10]: 2 (2=21-40%)
percentage damage to the plant, AMARE [11]: 1 (1=0-20%)
